Among the test systems are SR leukemia; NCI/ADR-RES ovarian; HCC-2998 colon; HOP-92 NSCLC; COLO 205 colon; SN12C renal; IGROV1 ovarian; HOP-62 NSCLC; HCT-116 colon; MDA-MB-231 breast.
Holding throughout (assay): NCI tumour cell line growth inhibition, 48 h

Here are results for six compounds from PubChem BioAssay (NCI).

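Growth conditions: 96-well plates. Treatment: test compound, 48 hours, 5 concentrations. Analysis: linear interpolation between bracketing concentrations; unreached endpoints set to highest concentration. GI50 = concentration required for 50% inhibition of growth. The concentration for full growth arrest is given as TGI.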

As for `CCC(CC)c1cc(N[C@H]2CC[C@H](N)C2)n2nccc2n1`, the GI50 was 0.332 µM in the experiment with SR leukemia; 6.41 µM with NCI/ADR-RES ovarian; 1.52 µM in the experiment on HCC-2998 colon; 3.56 µM with HOP-92 NSCLC; 0.732 µM in the experiment on COLO 205 colon; 0.691 µM in the experiment on SN12C renal. The GI50 in the experiment with IGROV1 ovarian is 2.38 µM; in the experiment with HOP-62 NSCLC, 0.99 µM; with HCT-116 colon, 0.402 µM; with MDA-MB-231 breast it was 1.05 µM. In addition, the TGI in the experiment with SR leukemia was over 100 µM; in the experiment with NCI/ADR-RES ovarian, over 100 µM; in the experiment on HCC-2998 colon, 12 µM; in the experiment on HOP-92 NSCLC, over 100 µM; in the experiment on COLO 205 colon, 2.41 µM; in the experiment with SN12C renal, over 100 µM. The TGI in the experiment with IGROV1 ovarian, in the experiment with HOP-62 NSCLC, in the experiment with HCT-116 colon and in the experiment with MDA-MB-231 breast was over 100 µM each time.

In the case of `Cc1cc(O[C@@H]2O[C@@H](C)[C@H](O)[C@@H](O)[C@H]2O)c2c3c(c(O[C@@H]4O[C@@H](C)[C@H](O)[C@@H](O)[C@H]4O)cc2c1)C(=O)c1c(O)cccc1C3=O`, the GI50 in the experiment with SR leukemia, in the experiment with NCI/ADR-RES ovarian, with HCC-2998 colon, in the experiment with HOP-92 NSCLC, with COLO 205 colon and in the experiment on SN12C renal was over 30 µM throughout. Moreover, the GI50 in the experiment with IGROV1 ovarian, in the experiment on HOP-62 NSCLC, in the experiment with HCT-116 colon and with MDA-MB-231 breast was over 30 µM in each case. The TGI with SR leukemia, with NCI/ADR-RES ovarian, with HCC-2998 colon, in the experiment on HOP-92 NSCLC, with COLO 205 colon and with SN12C renal was over 30 µM in each case. Moreover, the TGI in the experiment with IGROV1 ovarian, in the experiment with HOP-62 NSCLC, in the experiment with HCT-116 colon and in the experiment on MDA-MB-231 breast was over 30 µM each time.

On to `CC(=O)N(C)c1cc(NCc2ccccc2)ccc1OCc1ccccc1`, for which the TGI in the experiment on SR leukemia is 32.8 µM; in the experiment on NCI/ADR-RES ovarian, 44.8 µM; with HCC-2998 colon, 35 µM; in the experiment on HOP-92 NSCLC, 30 µM; with COLO 205 colon it was 54.8 µM; with SN12C renal it was 33.1 µM. Also, the TGI in the experiment with IGROV1 ovarian is 30.5 µM; in the experiment on HOP-62 NSCLC, over 100 µM; in the experiment on HCT-116 colon it was over 100 µM; with MDA-MB-231 breast, 30.2 µM.

Consider `O=c1c2cccc(F)c2sc2c(NCCCNCCO)nc3ccccc3c12`, for which the GI50 is 0.984 µM with SR leukemia; 1.52 µM with NCI/ADR-RES ovarian; 1.61 µM in the experiment with HCC-2998 colon; 1.42 µM in the experiment with HOP-92 NSCLC; 1.61 µM in the experiment with COLO 205 colon; 1.44 µM in the experiment on SN12C renal. Moreover, the GI50 was 1.23 µM in the experiment on IGROV1 ovarian, 1.54 µM in the experiment with HOP-62 NSCLC, 1.39 µM in the experiment with HCT-116 colon and 1.26 µM in the experiment on MDA-MB-231 breast. For the same compound, the TGI was 4.85 µM in the experiment with SR leukemia; 3.06 µM in the experiment with NCI/ADR-RES ovarian; 3.19 µM with HCC-2998 colon; 5.15 µM with HOP-92 NSCLC; 3.96 µM in the experiment on COLO 205 colon; 2.9 µM with SN12C renal. Also, the TGI in the experiment on IGROV1 ovarian is 2.65 µM; in the experiment with HOP-62 NSCLC it was 3.59 µM; with HCT-116 colon, 2.78 µM; in the experiment with MDA-MB-231 breast it was 2.65 µM.

For the compound `CCCCOC(=O)/C=C\C(=O)NC(N)=O`, the GI50 with SR leukemia is 35.7 µM; with NCI/ADR-RES ovarian, 27 µM; in the experiment on HCC-2998 colon, 19.8 µM; with HOP-92 NSCLC, 10.9 µM; in the experiment with COLO 205 colon, 14 µM; in the experiment with SN12C renal, 41.5 µM. Also, the GI50 with IGROV1 ovarian was 20.4 µM; with HOP-62 NSCLC it was 32.5 µM; in the experiment with HCT-116 colon, 13.4 µM; with MDA-MB-231 breast it was 17.9 µM. For the same compound, the TGI with SR leukemia was over 100 µM; in the experiment on NCI/ADR-RES ovarian, 74.3 µM; in the experiment with HCC-2998 colon it was 35.4 µM; with HOP-92 NSCLC, 24.4 µM; in the experiment on COLO 205 colon it was 29.1 µM; with SN12C renal, over 100 µM. The TGI is 54.3 µM in the experiment on IGROV1 ovarian, over 100 µM in the experiment with HOP-62 NSCLC, 27.8 µM in the experiment with HCT-116 colon and 42.6 µM in the experiment with MDA-MB-231 breast.

`CC(C)(C)[Si](C)(C)OC1[C@@H](O[Si](C)(C)C(C)(C)C)[C@@H](CNC(=O)NC(=O)NC(=O)CCl)O[C@H]1n1cnc2c(NC(=O)Nc3ccccc3)ncnc21` (stereo not given in full): the GI50 in the experiment on SR leukemia was 0.226 µM; in the experiment on NCI/ADR-RES ovarian, 6.45 µM; in the experiment with HCC-2998 colon, 8.74 µM; in the experiment on HOP-92 NSCLC, 0.842 µM; with COLO 205 colon, 6.3 µM; in the experiment on SN12C renal, 3.69 µM. Also, the GI50 with IGROV1 ovarian is 0.361 µM; with HOP-62 NSCLC it was 1.66 µM; with HCT-116 colon, 1.85 µM; in the experiment with MDA-MB-231 breast, 1.31 µM. In addition, the TGI with SR leukemia amounted to 0.81 µM; in the experiment on NCI/ADR-RES ovarian it was 15.9 µM; with HCC-2998 colon it was 18.6 µM; in the experiment with HOP-92 NSCLC, 1.98 µM; with COLO 205 colon it was 13 µM; in the experiment with SN12C renal, 10.6 µM. Also, the TGI with IGROV1 ovarian is 1.33 µM; in the experiment on HOP-62 NSCLC, 4.8 µM; in the experiment with HCT-116 colon, 7.41 µM; in the experiment on MDA-MB-231 breast, 3.76 µM.
